Laboratory results reported in ChEMBL document CHEMBL5724914, “Linking interpersonal differences in gut microbiota composition and drug biotransformation activity” (2024).

Legend:
[1] = (§1) The drug is tested on Z-020 corresponding to rabbit gut metagenome with ENA study accession number: PRJEB37062 and ENA sample accession number: ERS12561819 for biotransformation under anaerobic condition. The drug concentrations were measured over 9 timepoints collected between 0 and 24 hours of incubation by liquid-chromatography-coupled mass spectrometry (LC–MS); conditions: 2 µM
[2] = as §1, with “Z-014” for “Z-020”, “rat” for “rabbit”, “ERS12561814” for “ERS12561819”; conditions: 2 µM
[3] = as §1, with “Z-011” for “Z-020”, “mouse” for “rabbit”, “ERS12561811” for “ERS12561819”; conditions: 2 µM
[4] = as §1, with “WLS-170” for “Z-020”, “human” for “rabbit”, “ERS12561762” for “ERS12561819”; conditions: 2 µM
[5] = as §1, with “WLS-090” for “Z-020”, “human” for “rabbit”, “ERS12561753” for “ERS12561819”; conditions: 2 µM
[6] = as §1, with “WLS-073” for “Z-020”, “human” for “rabbit”, “ERS12561749” for “ERS12561819”; conditions: 2 µM
[7] = human gut metagenome, 24 h, 2 µM
[8] = human gut metagenome, 24 h, 2 µM; remark: listed apart in the source
[9] = human gut metagenome, 24 h, 2 µM; remark: listed apart in the source
Further: call rule not given here.

Bacterial Biotransformation [1] | Bacterial Biotransformation [2] | Bacterial Biotransformation [3] | Bacterial Biotransformation [4] | Bacterial Biotransformation [5] | Bacterial Biotransformation [6] | Bacterial Biotransformation [7] | Bacterial Biotransformation [8] | Bacterial Biotransformation [9] | SMILES
Compound metabolized | Compound NOT metabolized | Compound metabolized | Compound NOT metabolized | Compound NOT metabolized | Compound NOT metabolized | Compound NOT metabolized | Compound NOT metabolized | Compound NOT metabolized | CC[C@H](C)C(=O)O[C@H]1C[C@@H](C)C=C2C=C[C@H](C)[C@H](CC[C@@H]3C[C@@H](O)CC(=O)O3)[C@H]21 [LOVASTATIN]
Compound metabolized | Compound NOT metabolized | Compound NOT metabolized | Compound metabolized | Compound metabolized | Compound metabolized | Compound metabolized | Compound metabolized | Compound metabolized | CC(C)(C)NC[C@H](O)COc1ccccc1C1CCCC1.CC(C)(C)NC[C@H](O)COc1ccccc1C1CCCC1.O=S(=O)(O)O [PENBUTOLOL SULFATE]
Compound NOT metabolized | Compound NOT metabolized | Compound NOT metabolized | Compound NOT metabolized | Compound NOT metabolized | Compound NOT metabolized | Compound NOT metabolized | Compound NOT metabolized | Compound NOT metabolized | CCOc1ccc(NC(C)=O)cc1 [PHENACETIN]
Compound NOT metabolized | Compound NOT metabolized | Compound NOT metabolized | Compound NOT metabolized | Compound NOT metabolized | Compound NOT metabolized | Compound NOT metabolized | Compound NOT metabolized | Compound NOT metabolized | COc1ccccc1OCC(O)CN1CCN(CC(=O)Nc2c(C)cccc2C)CC1 (configuration not stated) [RANOLAZINE]
Compound NOT metabolized | Compound NOT metabolized | Compound NOT metabolized | Compound metabolized | Compound metabolized | Compound NOT metabolized | Compound NOT metabolized | Compound NOT metabolized | Compound NOT metabolized | CCCc1nn(C)c2c(=O)[nH]c(-c3cc(S(=O)(=O)N4CCN(C)CC4)ccc3OCC)nc12.O=C(O)CC(O)(CC(=O)O)C(=O)O [SILDENAFIL CITRATE]
Compound metabolized | Compound NOT metabolized | Compound metabolized | Compound NOT metabolized | Compound NOT metabolized | Compound NOT metabolized | Compound NOT metabolized | Compound NOT metabolized | Compound metabolized | Cc1cn([C@H]2C[C@H](N=[N+]=[N-])[C@@H](CO)O2)c(=O)[nH]c1=O [ZIDOVUDINE]

Second part, the compound before the results:

SMILES | Bacterial Biotransformation [1] | Bacterial Biotransformation [2] | Bacterial Biotransformation [3] | Bacterial Biotransformation [4] | Bacterial Biotransformation [5] | Bacterial Biotransformation [6] | Bacterial Biotransformation [7] | Bacterial Biotransformation [8] | Bacterial Biotransformation [9]
NC(CO)(CO)CO.O=C(c1ccccc1)c1ccc2n1CCC2C(=O)O (configuration not stated) [KETOROLAC TROMETHAMINE] | Compound metabolized | Compound NOT metabolized | Compound NOT metabolized | Compound metabolized | Compound metabolized | Compound metabolized | Compound metabolized | Compound metabolized | Compound metabolized
CN1C(=O)CC(C)(c2ccccc2)C1=O (configuration not stated) [METHSUXIMIDE] | Compound NOT metabolized | Compound NOT metabolized | Compound NOT metabolized | Compound metabolized | Compound NOT metabolized | Compound NOT metabolized | Compound NOT metabolized | Compound NOT metabolized | Compound NOT metabolized
COc1ccccc1N1CCN(CC(O)COc2cccc3ccccc23)CC1 (configuration not stated) [NAFTOPIDIL] | Compound NOT metabolized | Compound NOT metabolized | Compound NOT metabolized | Compound NOT metabolized | Compound NOT metabolized | Compound NOT metabolized | Compound NOT metabolized | Compound NOT metabolized | Compound NOT metabolized
CNC(=C[N+](=O)[O-])NCCSCc1csc(CN(C)C)n1 [NIZATIDINE] | Compound NOT metabolized | Compound NOT metabolized | Compound metabolized | Compound metabolized | Compound NOT metabolized | Compound metabolized | Compound NOT metabolized | Compound NOT metabolized | Compound NOT metabolized
COc1ccc2[nH]c([S+]([O-])Cc3ncc(C)c(OC)c3C)nc2c1 (configuration not stated) [OMEPRAZOLE] | Compound NOT metabolized | Compound NOT metabolized | Compound NOT metabolized | Compound metabolized | Compound metabolized | Compound metabolized | Compound metabolized | Compound metabolized | Compound metabolized
O=C(O)CCc1nc(-c2ccccc2)c(-c2ccccc2)o1 [OXAPROZIN] | Compound metabolized | Compound NOT metabolized | Compound NOT metabolized | Compound metabolized | Compound metabolized | Compound metabolized | Compound metabolized | Compound metabolized | Compound metabolized
Cc1nc2n(c(=O)c1CCN1CCC(c3noc4cc(F)ccc34)CC1)CCCC2O (configuration not stated) [PALIPERIDONE] | Compound NOT metabolized | Compound NOT metabolized | Compound NOT metabolized | Compound NOT metabolized | Compound metabolized | Compound metabolized | Compound metabolized | Compound metabolized | Compound NOT metabolized
CC(C(=O)O)c1ccc2c(c1)Cc1cccnc1O2 (configuration not stated) [PRANOPROFEN] | Compound metabolized | Compound NOT metabolized | Compound metabolized | Compound metabolized | Compound metabolized | Compound metabolized | Compound metabolized | Compound metabolized | Compound metabolized
CCc1nc(N)nc(N)c1-c1ccc(Cl)cc1 [PYRIMETHAMINE] | Compound NOT metabolized | Compound NOT metabolized | Compound NOT metabolized | Compound NOT metabolized | Compound metabolized | Compound NOT metabolized | Compound NOT metabolized | Compound NOT metabolized | Compound NOT metabolized
CN1C(C(=O)Nc2ccccn2)=C(O)c2sccc2S1(=O)=O [TENOXICAM] | Compound NOT metabolized | Compound NOT metabolized | Compound NOT metabolized | Compound NOT metabolized | Compound NOT metabolized | Compound NOT metabolized | Compound NOT metabolized | Compound NOT metabolized | Compound NOT metabolized
O=c1n(CCCN2CCN(c3cccc(Cl)c3)CC2)nc2ccccn12 [TRAZODONE] | Compound NOT metabolized | Compound NOT metabolized | Compound NOT metabolized | Compound NOT metabolized | Compound metabolized | Compound metabolized | Compound NOT metabolized | Compound metabolized | Compound NOT metabolized
OC(CCN1CCCCC1)(c1ccccc1)C1CCCCC1 (configuration not stated) [TRIHEXYPHENIDYL] | Compound metabolized | Compound NOT metabolized | Compound NOT metabolized | Compound metabolized | Compound metabolized | Compound metabolized | Compound NOT metabolized | Compound metabolized | Compound NOT metabolized
